Legend:
[1] = biological target: Serine/threonine-protein kinase N1 (Homo sapiens) (UniProt Q16512)
[2] = biological target: Protein kinase C eta type (Homo sapiens) (UniProt P24723)
[3] = biological target: T1, Serine/threonine-protein kinase TBK1 (Homo sapiens) (UniProt Q9UHD2)
T1 sequence (whole entry): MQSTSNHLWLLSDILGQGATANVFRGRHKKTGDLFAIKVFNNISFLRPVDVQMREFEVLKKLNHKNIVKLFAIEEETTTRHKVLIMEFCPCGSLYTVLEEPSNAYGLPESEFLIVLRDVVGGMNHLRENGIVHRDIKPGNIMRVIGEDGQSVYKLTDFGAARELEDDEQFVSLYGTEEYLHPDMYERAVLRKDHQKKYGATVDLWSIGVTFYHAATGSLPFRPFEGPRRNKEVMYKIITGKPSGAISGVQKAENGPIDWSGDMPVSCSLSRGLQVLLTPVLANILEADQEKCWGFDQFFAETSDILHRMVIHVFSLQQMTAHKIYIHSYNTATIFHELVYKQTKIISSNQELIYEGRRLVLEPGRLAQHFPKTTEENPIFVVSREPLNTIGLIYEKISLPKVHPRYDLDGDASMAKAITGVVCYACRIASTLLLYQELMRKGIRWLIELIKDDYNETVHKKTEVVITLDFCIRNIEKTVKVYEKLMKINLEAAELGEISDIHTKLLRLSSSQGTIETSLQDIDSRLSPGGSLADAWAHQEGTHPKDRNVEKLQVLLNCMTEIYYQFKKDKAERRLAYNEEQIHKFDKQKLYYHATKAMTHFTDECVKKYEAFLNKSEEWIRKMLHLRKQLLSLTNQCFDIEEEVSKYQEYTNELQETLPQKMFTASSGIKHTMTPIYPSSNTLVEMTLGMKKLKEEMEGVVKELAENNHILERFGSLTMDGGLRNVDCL

[4] = biological target: Protein-tyrosine kinase 2-beta (Homo sapiens) (UniProt Q14289)
[5] = biological target: Ephrin type-A receptor 6 (Homo sapiens) (UniProt Q9UF33)
Ephrin type-A receptor 6 (Homo sapiens), sequence (Q9UF33 whole entry): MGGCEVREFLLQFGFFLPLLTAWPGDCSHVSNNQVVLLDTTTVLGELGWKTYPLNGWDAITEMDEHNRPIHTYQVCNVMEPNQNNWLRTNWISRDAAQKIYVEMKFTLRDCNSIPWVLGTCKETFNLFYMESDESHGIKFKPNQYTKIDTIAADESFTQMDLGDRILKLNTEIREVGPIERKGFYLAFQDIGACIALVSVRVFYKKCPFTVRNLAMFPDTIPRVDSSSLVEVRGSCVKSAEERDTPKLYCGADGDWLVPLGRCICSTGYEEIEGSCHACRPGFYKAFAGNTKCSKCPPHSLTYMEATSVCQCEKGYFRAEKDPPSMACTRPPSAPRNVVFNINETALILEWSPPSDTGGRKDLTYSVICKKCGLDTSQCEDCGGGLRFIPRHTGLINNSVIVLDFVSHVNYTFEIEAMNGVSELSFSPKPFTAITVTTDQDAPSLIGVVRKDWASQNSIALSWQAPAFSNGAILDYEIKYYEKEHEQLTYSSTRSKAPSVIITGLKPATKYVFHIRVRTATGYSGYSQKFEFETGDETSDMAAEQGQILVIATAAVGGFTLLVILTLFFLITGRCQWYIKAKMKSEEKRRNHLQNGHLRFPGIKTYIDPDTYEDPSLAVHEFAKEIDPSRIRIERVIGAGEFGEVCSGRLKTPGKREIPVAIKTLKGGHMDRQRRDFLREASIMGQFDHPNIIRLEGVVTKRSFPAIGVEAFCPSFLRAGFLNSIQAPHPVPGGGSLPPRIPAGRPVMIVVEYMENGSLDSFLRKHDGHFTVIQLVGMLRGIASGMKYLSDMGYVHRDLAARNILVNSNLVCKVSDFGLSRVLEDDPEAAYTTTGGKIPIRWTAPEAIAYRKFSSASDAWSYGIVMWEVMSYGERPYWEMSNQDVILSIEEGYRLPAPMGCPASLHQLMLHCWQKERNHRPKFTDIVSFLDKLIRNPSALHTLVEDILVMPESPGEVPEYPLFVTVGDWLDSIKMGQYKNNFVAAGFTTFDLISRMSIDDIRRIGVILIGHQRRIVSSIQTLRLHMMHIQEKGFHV

[6] = biological target: Bone morphogenetic protein receptor type-1B (Homo sapiens) (UniProt O00238)
[7] = biological target: Serine/threonine-protein kinase LATS1 (Homo sapiens) (UniProt O95835)
[8] = biological target: Interleukin-1 receptor-associated kinase 1 (Homo sapiens) (UniProt P51617)
Interleukin-1 receptor-associated kinase 1 (Homo sapiens), sequence (P51617 whole entry, looked up): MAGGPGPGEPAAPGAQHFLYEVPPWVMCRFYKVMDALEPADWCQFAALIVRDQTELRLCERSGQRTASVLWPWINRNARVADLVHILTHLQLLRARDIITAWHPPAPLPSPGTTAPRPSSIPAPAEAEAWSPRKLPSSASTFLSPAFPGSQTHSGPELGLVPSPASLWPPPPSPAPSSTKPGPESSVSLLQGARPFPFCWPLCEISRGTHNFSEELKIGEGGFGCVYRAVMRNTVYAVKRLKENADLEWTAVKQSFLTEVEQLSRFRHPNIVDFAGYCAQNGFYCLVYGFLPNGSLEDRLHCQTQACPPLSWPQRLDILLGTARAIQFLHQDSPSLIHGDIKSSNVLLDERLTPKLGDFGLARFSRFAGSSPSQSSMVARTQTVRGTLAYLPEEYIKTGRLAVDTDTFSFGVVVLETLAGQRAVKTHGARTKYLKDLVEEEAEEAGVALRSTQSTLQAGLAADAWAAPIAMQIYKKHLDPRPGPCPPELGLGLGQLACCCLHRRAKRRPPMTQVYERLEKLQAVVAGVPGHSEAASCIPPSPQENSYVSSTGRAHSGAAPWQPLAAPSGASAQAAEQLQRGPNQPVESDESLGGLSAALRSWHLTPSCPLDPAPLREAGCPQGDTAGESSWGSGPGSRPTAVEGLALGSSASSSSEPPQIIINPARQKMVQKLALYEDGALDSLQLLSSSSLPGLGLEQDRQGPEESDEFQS

[9] = biological target: SNF-related serine/threonine-protein kinase (Homo sapiens) (UniProt Q9NRH2)
[10] = biological target: Serine/threonine-protein kinase 25 (Homo sapiens) (UniProt O00506)
Serine/threonine-protein kinase 25 (Homo sapiens), sequence (O00506 whole entry, looked up): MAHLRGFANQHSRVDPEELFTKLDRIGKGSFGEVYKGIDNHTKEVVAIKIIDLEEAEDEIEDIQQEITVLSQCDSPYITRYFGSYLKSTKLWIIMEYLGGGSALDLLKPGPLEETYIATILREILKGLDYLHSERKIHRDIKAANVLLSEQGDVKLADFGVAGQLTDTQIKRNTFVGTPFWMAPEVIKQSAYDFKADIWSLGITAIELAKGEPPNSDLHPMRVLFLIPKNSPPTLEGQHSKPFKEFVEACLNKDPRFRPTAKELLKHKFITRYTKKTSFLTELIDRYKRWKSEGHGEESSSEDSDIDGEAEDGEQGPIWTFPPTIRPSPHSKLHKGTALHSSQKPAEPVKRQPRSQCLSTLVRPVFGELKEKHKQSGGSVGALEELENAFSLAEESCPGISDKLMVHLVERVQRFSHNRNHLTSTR

[11] = biological target: T2, Tyrosine-protein kinase receptor TYRO3 (Homo sapiens) (UniProt Q06418)
T2 sequence (whole entry): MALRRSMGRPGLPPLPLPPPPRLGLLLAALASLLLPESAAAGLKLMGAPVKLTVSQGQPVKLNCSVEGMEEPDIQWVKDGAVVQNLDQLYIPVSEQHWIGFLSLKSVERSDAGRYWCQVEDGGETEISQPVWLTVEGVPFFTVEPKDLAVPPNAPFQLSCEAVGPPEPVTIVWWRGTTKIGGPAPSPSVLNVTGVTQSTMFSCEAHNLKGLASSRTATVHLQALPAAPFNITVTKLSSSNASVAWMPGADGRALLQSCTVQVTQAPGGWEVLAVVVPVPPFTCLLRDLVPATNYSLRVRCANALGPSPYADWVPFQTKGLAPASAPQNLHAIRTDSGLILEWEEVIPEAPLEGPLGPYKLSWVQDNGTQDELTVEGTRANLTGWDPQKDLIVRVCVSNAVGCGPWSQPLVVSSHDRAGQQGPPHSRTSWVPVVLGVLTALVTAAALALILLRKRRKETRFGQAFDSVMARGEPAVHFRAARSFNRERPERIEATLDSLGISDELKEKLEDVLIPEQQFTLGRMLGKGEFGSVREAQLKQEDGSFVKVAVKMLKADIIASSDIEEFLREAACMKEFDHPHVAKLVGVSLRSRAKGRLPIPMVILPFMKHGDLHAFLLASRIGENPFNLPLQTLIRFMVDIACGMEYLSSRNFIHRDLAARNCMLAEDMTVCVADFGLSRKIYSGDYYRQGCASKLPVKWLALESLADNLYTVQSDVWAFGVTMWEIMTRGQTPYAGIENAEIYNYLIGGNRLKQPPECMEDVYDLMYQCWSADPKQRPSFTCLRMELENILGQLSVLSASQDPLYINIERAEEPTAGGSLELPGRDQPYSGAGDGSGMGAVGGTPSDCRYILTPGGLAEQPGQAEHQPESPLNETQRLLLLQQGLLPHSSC

[12] = tested on: Phosphatidylinositol 4,5-bisphosphate 3-kinase catalytic subunit alpha isoform (Homo sapiens), P42336 [Q546K]
Phosphatidylinositol 4,5-bisphosphate 3-kinase catalytic subunit alpha isoform (Homo sapiens), P42336 [Q546K], sequence (P42336 whole entry Q546K, canonical isoform): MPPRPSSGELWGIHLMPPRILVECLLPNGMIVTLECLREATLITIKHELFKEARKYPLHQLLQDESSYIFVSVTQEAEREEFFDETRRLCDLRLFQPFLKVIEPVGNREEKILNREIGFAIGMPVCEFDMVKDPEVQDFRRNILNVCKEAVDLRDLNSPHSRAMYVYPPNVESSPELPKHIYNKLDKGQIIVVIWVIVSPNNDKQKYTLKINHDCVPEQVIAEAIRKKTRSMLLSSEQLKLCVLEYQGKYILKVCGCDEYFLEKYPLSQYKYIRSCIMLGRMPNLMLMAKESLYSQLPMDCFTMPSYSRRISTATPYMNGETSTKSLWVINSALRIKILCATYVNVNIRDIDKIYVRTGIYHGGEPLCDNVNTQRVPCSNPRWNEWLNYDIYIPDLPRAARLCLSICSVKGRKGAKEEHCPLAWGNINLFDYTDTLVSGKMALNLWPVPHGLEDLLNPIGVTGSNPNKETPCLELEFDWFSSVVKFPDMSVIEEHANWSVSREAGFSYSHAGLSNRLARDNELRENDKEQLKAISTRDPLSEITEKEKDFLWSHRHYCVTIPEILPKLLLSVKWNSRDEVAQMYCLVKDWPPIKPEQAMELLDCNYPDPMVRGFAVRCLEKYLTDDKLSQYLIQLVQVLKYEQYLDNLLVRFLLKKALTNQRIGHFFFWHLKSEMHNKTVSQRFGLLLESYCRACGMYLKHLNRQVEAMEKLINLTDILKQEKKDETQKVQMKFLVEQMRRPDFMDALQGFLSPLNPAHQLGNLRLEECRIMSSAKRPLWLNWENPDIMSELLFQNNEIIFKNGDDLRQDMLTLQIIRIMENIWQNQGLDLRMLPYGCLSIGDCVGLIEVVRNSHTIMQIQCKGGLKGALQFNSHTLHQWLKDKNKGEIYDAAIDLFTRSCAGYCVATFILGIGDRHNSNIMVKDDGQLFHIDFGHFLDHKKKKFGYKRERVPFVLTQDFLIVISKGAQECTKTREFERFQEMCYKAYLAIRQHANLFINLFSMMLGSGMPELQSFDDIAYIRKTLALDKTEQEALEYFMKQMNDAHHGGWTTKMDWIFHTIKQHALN

[13] = biological target: T3, Activin receptor type-1 (Homo sapiens) (UniProt Q04771)
T3 sequence (whole entry): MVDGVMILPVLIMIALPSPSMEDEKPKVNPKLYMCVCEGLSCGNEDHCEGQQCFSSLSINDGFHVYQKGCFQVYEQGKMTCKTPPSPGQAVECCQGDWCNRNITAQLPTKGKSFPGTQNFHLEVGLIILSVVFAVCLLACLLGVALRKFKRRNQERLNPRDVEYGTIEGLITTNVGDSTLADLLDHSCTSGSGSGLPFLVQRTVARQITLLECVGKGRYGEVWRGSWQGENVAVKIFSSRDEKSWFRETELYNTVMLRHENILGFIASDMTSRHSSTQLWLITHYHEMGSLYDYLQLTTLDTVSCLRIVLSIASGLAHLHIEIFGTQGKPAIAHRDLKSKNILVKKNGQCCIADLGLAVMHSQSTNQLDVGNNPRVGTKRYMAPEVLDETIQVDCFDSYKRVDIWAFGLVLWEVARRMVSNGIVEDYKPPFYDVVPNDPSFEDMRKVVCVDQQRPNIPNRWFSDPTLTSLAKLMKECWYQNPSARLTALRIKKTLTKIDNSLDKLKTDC

[14] = biological target: Wee1-like protein kinase (Homo sapiens) (UniProt P30291)
[15] = Compound concentration 1000.0 nM
[16] = Compound concentration 100.0 nM

Protein kinase C eta type (Homo sapiens), sequence (P24723 whole entry): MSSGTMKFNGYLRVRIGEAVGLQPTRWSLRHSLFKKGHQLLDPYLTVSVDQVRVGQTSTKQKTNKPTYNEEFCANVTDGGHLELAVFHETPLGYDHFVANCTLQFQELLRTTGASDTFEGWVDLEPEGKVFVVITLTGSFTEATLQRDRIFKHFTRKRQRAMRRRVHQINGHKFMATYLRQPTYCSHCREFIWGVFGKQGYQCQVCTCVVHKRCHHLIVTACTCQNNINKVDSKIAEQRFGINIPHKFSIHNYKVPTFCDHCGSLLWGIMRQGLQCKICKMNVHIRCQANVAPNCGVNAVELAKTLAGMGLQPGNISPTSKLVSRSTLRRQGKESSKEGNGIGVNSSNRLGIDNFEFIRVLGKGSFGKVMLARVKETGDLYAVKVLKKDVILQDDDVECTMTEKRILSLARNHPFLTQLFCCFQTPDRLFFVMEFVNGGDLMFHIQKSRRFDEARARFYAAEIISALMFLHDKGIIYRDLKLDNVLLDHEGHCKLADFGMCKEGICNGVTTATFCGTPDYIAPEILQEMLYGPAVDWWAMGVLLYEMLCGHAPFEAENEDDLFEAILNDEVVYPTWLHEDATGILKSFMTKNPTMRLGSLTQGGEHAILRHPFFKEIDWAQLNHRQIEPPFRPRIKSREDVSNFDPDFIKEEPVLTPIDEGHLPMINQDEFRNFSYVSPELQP
Serine/threonine-protein kinase N1 (Homo sapiens), sequence (Q16512 2-942 limits assumed): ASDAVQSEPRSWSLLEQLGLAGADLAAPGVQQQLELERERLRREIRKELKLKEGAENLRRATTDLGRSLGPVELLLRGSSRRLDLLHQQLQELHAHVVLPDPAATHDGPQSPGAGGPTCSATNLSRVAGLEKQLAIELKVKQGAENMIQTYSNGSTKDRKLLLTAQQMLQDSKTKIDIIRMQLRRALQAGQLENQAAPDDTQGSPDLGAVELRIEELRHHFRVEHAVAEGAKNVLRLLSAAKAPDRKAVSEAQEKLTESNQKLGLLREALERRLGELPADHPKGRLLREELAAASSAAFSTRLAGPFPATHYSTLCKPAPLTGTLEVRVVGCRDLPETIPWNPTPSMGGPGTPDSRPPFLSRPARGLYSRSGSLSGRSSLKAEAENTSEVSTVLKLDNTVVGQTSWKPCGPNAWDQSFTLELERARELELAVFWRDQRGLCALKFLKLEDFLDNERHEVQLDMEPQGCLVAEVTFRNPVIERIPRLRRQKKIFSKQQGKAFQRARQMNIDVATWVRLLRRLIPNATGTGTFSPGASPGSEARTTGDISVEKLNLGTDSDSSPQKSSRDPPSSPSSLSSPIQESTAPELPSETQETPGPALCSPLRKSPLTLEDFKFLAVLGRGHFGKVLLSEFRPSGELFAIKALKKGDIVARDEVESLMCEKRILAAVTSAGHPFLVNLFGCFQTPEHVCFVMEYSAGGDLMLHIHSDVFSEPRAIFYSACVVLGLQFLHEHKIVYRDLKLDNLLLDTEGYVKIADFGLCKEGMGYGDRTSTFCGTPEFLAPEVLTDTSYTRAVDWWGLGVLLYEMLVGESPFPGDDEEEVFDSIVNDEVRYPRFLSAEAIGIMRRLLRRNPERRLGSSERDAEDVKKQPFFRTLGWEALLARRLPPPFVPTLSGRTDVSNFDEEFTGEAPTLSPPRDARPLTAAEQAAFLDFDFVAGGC

Question: What does the source list for `C[C@@H]1CN(c2cc(-c3nn(C)c4ccc(OC5(C)CC5)cc34)ncn2)C[C@H](C)O1` [MLi-2-NC]?
Answer: residual activity [1, 15]: 100%; residual activity [2, 15]: 100%; residual activity [3, 15]: 75%; residual activity [4, 15]: 77%; residual activity [5, 15]: 100%; residual activity [6, 15]: 77%; residual activity [7, 15]: 100%; residual activity [8, 15]: 67%; residual activity [9, 15]: 92%; residual activity [10, 15]: 100%; residual activity [11, 15]: 93%; residual activity [12, 15]: 39%; residual activity [13, 15]: 96%; residual activity [14, 15]: 100%

Question: What does the source list for `C[C@@H]1CN(c2cc(-c3n[nH]c4ccc(OC5(C)CC5)cc34)ncn2)C[C@H](C)O1` [MLi-2]?
Answer: residual activity [1, 16]: 91%; residual activity [2, 16]: 92%; residual activity [3, 16]: 68%; residual activity [4, 16]: 100%; residual activity [5, 16]: 90%; residual activity [6, 16]: 81%; residual activity [7, 16]: 96%; residual activity [8, 16]: 79%; residual activity [9, 16]: 94%; residual activity [10, 16]: 100%; residual activity [11, 16]: 100%; residual activity [12, 16]: 69%; residual activity [13, 16]: 90%; residual activity [14, 16]: 97%

Reference: ChEMBL document CHEMBL4507291 (2021)
